Reference: ChEMBL document CHEMBL4699600, “Design, Synthesis, and Biological Evaluation of Covalent Inhibitors of Focal Adhesion Kinase (FAK) against Human Malignant Glioblastoma” (J Med Chem, 2020)
Calls of active or inactive are those of the source. No cut-off for these calls is given here.

Columns and labels:
[1] = species: Homo sapiens; test: Inhibition of human recombinant Erk at 100 nM measured in presence of [33P]-ATP by radiometric analysis relative to control
[2] = test system: A 172; test: Cytotoxicity against human A172 cells assessed as reduction in cell viability incubated for 48 hrs by MTT assay; settings: A 172, 48 h
[3] = biological target: T1, Focal adhesion kinase 1 (Homo sapiens, UniProt Q05397); test: Inhibition of human recombinant FAK at 100 nM by [gamma32P]-ATP radiometric analysis relative to control
Target sequence in this assay (Q05397 2-1052 limits assumed): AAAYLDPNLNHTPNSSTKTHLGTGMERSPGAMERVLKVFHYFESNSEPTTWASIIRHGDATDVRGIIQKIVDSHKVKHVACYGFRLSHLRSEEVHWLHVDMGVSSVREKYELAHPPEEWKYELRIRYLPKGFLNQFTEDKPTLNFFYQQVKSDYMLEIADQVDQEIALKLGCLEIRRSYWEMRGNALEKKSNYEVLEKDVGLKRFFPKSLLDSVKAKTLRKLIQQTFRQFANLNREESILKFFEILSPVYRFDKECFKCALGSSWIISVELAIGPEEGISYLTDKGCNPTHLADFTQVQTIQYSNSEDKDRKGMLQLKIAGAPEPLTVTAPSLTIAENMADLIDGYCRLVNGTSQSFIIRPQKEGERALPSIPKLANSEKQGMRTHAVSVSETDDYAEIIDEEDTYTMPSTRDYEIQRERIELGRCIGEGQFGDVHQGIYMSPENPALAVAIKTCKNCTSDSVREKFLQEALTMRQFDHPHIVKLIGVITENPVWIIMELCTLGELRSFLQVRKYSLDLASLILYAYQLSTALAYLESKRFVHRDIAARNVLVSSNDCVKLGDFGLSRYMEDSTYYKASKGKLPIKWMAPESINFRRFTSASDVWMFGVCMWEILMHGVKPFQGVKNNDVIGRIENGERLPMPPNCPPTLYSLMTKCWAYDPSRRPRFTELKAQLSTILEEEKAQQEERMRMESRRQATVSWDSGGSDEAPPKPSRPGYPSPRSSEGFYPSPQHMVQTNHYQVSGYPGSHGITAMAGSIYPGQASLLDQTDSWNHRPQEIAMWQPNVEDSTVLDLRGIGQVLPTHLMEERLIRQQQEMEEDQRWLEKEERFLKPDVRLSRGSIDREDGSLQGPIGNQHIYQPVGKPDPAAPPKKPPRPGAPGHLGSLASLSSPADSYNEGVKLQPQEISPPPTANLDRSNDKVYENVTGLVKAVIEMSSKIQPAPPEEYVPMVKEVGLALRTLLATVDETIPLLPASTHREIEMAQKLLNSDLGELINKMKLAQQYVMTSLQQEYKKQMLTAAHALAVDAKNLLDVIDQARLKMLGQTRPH

[4] = biological target: Insulin-like growth factor 1 receptor (Homo sapiens) (UniProt P08069); test: Inhibition of human recombinant IGF1R at 100 nM by [gamma-33ATP] radiometric assay relative to control
[5] = biological target: Platelet-derived growth factor receptor alpha (Homo sapiens) (UniProt P16234); test: Inhibition of human recombinant PDGFRA at 100 nM by [gamma-33ATP] radiometric assay relative to control
[6] = biological target: Insulin receptor (Homo sapiens) (UniProt P06213); test: Inhibition of human recombinant IR at 100 nM by [gamma-33ATP] radiometric analysis relative to control
[7] = test system: U-87 MG; test: Induction of apoptosis in human U87MG cells assessed as necrotic cells at 10 uM incubated for 48 hrs by Annexin-V/propidium iodide staining based flow cytometric method (reference value: […]); type: functional, U-87MG ATCC
[8] = test system: U-87 MG; test: Induction of apoptosis in human U87MG cells assessed as late apoptotic cells at 10 uM incubated for 48 hrs by Annexin-V/propidium iodide staining based flow cytometric method (reference value: […]); type: functional, U-87MG ATCC
[9] = biological target: Protein-tyrosine kinase 2-beta (Homo sapiens) (UniProt Q14289); test: Inhibition of recombinant human full length PYK2 at 100 nM in presence of [gamma32P]-ATP by radiometric analysis relative to control
Chain of Protein-tyrosine kinase 2-beta (Homo sapiens) (Q14289 whole entry, looked up): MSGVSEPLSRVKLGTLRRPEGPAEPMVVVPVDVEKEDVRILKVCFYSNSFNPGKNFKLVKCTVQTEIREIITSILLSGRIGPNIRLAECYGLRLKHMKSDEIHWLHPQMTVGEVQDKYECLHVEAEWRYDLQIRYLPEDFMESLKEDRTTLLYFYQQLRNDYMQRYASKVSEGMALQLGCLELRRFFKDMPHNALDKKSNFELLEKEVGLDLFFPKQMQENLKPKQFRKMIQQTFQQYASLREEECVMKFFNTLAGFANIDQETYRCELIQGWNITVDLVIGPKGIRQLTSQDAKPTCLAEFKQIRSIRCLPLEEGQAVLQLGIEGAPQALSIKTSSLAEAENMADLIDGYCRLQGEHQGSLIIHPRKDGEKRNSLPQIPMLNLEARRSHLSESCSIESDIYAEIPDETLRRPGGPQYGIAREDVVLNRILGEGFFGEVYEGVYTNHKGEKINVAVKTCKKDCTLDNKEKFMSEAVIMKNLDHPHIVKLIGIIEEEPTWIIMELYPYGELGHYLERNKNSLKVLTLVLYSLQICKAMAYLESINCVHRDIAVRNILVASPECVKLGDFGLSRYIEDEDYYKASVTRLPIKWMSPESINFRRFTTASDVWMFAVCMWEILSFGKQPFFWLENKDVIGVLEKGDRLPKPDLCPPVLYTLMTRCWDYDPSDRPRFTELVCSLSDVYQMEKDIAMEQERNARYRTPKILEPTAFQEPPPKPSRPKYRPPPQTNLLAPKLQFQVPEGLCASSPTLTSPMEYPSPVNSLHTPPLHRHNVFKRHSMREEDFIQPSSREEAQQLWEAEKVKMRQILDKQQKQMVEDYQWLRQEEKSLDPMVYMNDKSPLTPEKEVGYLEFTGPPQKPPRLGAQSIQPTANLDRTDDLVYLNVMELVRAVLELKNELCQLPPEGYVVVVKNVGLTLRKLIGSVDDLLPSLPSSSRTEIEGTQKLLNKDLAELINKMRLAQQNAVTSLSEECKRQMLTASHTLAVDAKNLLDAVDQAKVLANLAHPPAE

[10] = test system: U-251; test: Cytotoxicity against human U251 cells assessed as reduction in cell viability incubated for 48 hrs by MTT assay; settings: U-251, 48 h
[11] = biological target: T1, Focal adhesion kinase 1; settings: U-87 MG, dose microM 0.6-3, time 48.0 hrs
Target sequence in this assay (Q05397 2-1052 limits assumed): as the sequence (Q05397 2-1052 limits assumed) above

[12] = test system: U-87 MG; test: Induction of cell cycle arrest in human U87MG cells assessed as increase in accumulation at G2 phase at 1 uM incubated for 48 hrs by propidium iodide staining based flow cytometry analysis; type: functional; settings: U-87MG ATCC
[13] = biological target: T1, Focal adhesion kinase 1; settings: U-87 MG, dose microM 0.1-10, time 48.0 hrs
Target sequence in this assay (Q05397 2-1052 limits assumed): as above

[14] = biological target: T1, Focal adhesion kinase 1; settings: U-87 MG, dose microM 0.1-5, time 48.0 hrs
Target sequence in this assay (Q05397 2-1052 limits assumed): as above

[15] = test system: U-87 MG; test: Cytotoxicity against human U-87 MG cells assessed as reduction in cell viability incubated for 48 hrs by MTT assay
[16] = test system: U-87 MG; test: Induction of cellular senescence in human U87MG cells assessed as flat and enlarged cells at 1 uM incubated for 48 hrs by TO-PRO-3 dye based immunocytochemistry analysis; type: functional, cell-based; settings: U-87MG ATCC
[17] = biological target: T2, Serine/threonine-protein kinase AKT (Homo sapiens) (UniProt P31751+Q9Y243+P31749); test: Inhibition of human Akt at 100 nM in presence of [33P]-ATP by radiometric analysis relative to control; type: protein assay
T2 sequence (P31749 whole entry, looked up, the tested form may be a part): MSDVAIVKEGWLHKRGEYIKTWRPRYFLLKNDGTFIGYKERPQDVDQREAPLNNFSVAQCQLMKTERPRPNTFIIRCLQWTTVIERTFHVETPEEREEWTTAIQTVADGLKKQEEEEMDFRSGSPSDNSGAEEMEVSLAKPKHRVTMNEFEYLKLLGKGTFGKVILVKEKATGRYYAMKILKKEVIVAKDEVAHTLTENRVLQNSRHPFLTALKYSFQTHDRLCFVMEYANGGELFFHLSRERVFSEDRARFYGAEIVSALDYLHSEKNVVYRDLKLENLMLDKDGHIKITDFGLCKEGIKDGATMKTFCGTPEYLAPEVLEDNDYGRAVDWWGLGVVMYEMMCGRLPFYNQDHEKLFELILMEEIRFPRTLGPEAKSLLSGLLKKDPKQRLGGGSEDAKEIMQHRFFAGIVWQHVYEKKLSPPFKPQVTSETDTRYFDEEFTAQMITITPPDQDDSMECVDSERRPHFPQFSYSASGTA
T2 sequence (P31751 whole entry, looked up, the tested form may be a part): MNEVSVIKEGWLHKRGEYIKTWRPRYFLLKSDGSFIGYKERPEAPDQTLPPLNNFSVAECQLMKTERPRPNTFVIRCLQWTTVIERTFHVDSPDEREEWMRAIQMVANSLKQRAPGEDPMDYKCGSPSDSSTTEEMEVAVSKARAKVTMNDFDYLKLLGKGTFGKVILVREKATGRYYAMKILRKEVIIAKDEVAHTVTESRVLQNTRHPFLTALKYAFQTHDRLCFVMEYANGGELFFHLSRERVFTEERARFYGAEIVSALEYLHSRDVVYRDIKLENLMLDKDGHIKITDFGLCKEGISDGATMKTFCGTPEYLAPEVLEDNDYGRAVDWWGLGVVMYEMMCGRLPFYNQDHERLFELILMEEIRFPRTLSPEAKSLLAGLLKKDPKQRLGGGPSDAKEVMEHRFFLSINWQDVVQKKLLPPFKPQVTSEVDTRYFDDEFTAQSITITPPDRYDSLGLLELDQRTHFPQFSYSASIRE
T2 sequence (Q9Y243 whole entry, looked up, the tested form may be a part): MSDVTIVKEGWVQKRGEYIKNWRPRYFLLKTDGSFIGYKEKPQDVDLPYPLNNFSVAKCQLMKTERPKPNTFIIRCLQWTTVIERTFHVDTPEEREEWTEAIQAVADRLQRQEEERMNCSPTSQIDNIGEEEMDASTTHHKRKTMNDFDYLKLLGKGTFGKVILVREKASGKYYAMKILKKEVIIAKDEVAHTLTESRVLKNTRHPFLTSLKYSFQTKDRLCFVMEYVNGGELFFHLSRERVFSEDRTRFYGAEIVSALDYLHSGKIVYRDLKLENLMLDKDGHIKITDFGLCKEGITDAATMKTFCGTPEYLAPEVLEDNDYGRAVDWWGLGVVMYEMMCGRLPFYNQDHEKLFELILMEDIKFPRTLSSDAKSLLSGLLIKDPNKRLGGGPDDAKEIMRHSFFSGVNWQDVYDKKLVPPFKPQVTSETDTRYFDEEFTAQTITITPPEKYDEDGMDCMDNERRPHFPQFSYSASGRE

[18] = biological target: T1, Focal adhesion kinase 1; test: Inhibition of recombinant human N-terminal His-tagged FAK (393 to 698 residues) expressed in baculovirus infected Sf9 insect cells using Poly (4:1 Glu, Tyr) as substrate measured after 1 hr by ADP-glo luminescence assay
Target sequence in this assay (Q05397 whole entry): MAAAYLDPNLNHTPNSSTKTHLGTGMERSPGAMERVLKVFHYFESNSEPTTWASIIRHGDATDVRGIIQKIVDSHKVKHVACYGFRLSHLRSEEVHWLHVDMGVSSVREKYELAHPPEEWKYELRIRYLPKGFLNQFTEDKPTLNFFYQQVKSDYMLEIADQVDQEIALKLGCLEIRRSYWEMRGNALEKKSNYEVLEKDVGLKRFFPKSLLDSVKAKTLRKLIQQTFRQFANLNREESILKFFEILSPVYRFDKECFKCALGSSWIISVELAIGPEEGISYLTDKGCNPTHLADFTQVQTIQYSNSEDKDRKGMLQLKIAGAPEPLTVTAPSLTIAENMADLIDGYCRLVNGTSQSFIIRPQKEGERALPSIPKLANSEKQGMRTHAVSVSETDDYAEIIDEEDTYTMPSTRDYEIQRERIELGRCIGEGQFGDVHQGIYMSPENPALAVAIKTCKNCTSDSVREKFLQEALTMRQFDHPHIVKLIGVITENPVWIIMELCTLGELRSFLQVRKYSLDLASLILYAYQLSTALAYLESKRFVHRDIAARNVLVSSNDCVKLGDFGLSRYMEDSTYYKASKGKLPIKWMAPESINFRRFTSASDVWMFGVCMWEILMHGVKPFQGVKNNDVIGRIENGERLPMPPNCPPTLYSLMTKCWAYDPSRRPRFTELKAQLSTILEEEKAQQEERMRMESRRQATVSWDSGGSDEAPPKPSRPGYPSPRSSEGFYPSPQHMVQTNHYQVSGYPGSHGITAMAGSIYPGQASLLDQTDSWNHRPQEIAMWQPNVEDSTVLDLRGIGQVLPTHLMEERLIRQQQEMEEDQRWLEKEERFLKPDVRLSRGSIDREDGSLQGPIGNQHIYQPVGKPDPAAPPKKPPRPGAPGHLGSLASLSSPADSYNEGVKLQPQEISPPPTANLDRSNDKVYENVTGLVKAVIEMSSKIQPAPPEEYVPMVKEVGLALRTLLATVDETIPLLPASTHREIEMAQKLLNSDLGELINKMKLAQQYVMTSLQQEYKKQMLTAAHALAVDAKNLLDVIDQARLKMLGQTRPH

[19] = test system: U-87 MG; test: Induction of apoptosis in human U87MG cells assessed as early apoptotic cells at 10 uM incubated for 48 hrs by Annexin-V/propidium iodide staining based flow cytometric method (reference value: 4.55 %); type: functional, U-87MG ATCC
[20] = biological target: Proto-oncogene tyrosine-protein kinase Src (Homo sapiens) (UniProt P12931); test: Inhibition of human recombinant Src at 100 nM in presence of [gamma33P]ATP by radiometric assay relative to control
[21] = biological target: T1, Focal adhesion kinase 1; settings: U-87 MG, dose microM 0.1-5, time 48.0 hrs; remark: listed apart in the source
Target sequence in this assay (Q05397 2-1052 limits assumed): as the sequence (Q05397 2-1052 limits assumed) above

[22] = biological target: Epidermal growth factor receptor (Homo sapiens) (UniProt P00533); test: Inhibition of human recombinant EGFR at 100 nM in presence of [gamma33P]ATP by radiometric assay relative to control
[23] = test system: U-87 MG; test: Induction of cell cycle arrest in human U87MG cells assessed as multi-nucleated giant cells at 1 uM incubated for 48 hrs by TO-PRO-3 dye based immunocytochemistry analysis; type: functional; settings: U-87MG ATCC
[24] = biological target: Fibroblast growth factor receptor 1 (Homo sapiens) (UniProt P11362); test: Inhibition of human recombinant FGFR1 (456 to 765 residues) at 100 nM in presence of [gamma33P]ATP by radiometric assay relative to control
[25] = test system: U-87 MG; test: Induction of cell cycle arrest in human U87MG cells assessed as accumulation at G0/G1 phase at 1 uM incubated for 48 hrs by propidium iodide staining based flow cytometry analysis (reference value: 51.6 +/- […]); type: functional, U-87MG ATCC
[26] = test system: U-87 MG; test: Inhibition of cell migration in human U87MG cells assessed as reduction of cell mobility at 0.2 to 1 uM measured at 24 to 48 hrs by scratch wound assay; type: functional, cell-based; settings: U-87MG ATCC, dose microM 0.2-1, time hrs 24-48
[27] = biological target: T2, Serine/threonine-protein kinase AKT (Homo sapiens); test: Activation of AKT in human U87MG cells at 0.1 to 10 uM incubated for 48 hrs by Western blot analysis; type: cell-based; settings: U-87 MG, dose microM 0.1-10, time 48.0 hrs
[28] = test system: U-87 MG; test: Activation of ERK in human U87MG cells at 0.1 to 10 uM incubated for 48 hrs by Western blot analysis; type: cell-based; settings: dose microM 0.1-10, time 48.0 hrs
[29] = biological target: T1, Focal adhesion kinase 1; settings: U-87 MG, dose microM 0.1-10, time 48.0 hrs; remark: listed apart in the source
Target sequence in this assay (Q05397 2-1052 limits assumed): as above

[30] = test system: U-87 MG; test: Induction of cell cycle arrest in human U87MG cells assessed as accumulation in G2/M phase at 1 uM incubated for 48 hrs by propidium iodide staining based flow cytometry analysis (reference value: 28.9 +/- 2.1 %); type: functional, U-87MG ATCC; settings: dose microM 1-10
[31] = test system: U-87 MG; test: Inhibition of cell adhesion in human U87MG cells assessed as increase in appearance of stress fiber at 1 uM incubated for 48 hrs by FITC-conjugated phalloidin and TO-PRO3 staining based microscopic analysis; type: functional; settings: U-87MG ATCC
[32] = biological target: Mast/stem cell growth factor receptor Kit (Homo sapiens) (UniProt P10721); test: Inhibition of human recombinant c-kit at 100 nM in presence of [gamma33P]ATP by radiometric assay relative to control
[33] = test system: U-87 MG; test: Induction of apoptosis in human U87MG cells assessed as live cells at 10 uM incubated for 48 hrs by Annexin-V/propidium iodide staining based flow cytometric method (reference value: 94.2%); type: functional, U-87MG ATCC
[34] = test system: U-87 MG; test: Induction of cell cycle arrest in human U87MG cells assessed as accumulation at S phase at 1 uM incubated for 48 hrs by propidium iodide staining based flow cytometry analysis (reference value: 19.5 %); type: functional, U-87MG ATCC
[35] = biological target: T1, Focal adhesion kinase 1; test: Covalent inhibition of recombinant human N-terminal His-tagged FAK (393 to 698 residues) expressed in baculovirus infected Sf9 insect cells using Poly (4:1 Glu, Tyr) as substrate preincubated for 2 to 60 mins followed by substrate addition and measured after 1 hr by ADP-glo luminescence assay
Target sequence in this assay (Q05397 whole entry): as the sequence (Q05397 whole entry) above

[36] = biological target: T1, Focal adhesion kinase 1; settings: U-87 MG, dose microM 0.1-10, time 48.0 hrs; remark: listed apart in the source

## CNC(=O)c1ccccc1Nc1nc(Nc2ccc(CNc3c(NCCNC(=O)/C(C#N)=C/C(C)C)c(=O)c3=O)cc2)ncc1Cl
[1]
  inhibition: 4.3%
[2]
  IC50: 1300 nM
[3]
  inhibition: 94.1%
[4]
  inhibition: 71.9%
[5]
  inhibition: 67.5%
[6]
  inhibition: 32.4%
[7]
  Activity: 3.37%
[8]
  Activity: 0.21%
[9]
  inhibition: 97.5%
[10]
  IC50: 9.8 µM
[11]
  inhibition: Dose-dependent effect
[12]
  Activity: Active
[13]
  inhibition: Dose-dependent effect
[14]
  inhibition: Dose-dependent effect
[15]
  IC50: 7.1 µM
[16]
  Activity: Active
[17]
  inhibition: 19.9%
[18]
  IC50: 1.2 nM
[19]
  Activity: 0%
[20]
  inhibition: 31.1%
[21]
  inhibition: inactive
[22]
  inhibition: 25.1%
[23]
  Activity: Active
[24]
  inhibition: 83.5%
[25]
  Activity: 12.7%
[26]
  inhibition: Active
[27]
  Activity: inactive
[28]
  Activity: inactive
[29]
  inhibition: Dose-dependent effect
[30]
  Activity: 79.1%
[31]
  inhibition: Active
[32]
  inhibition: 0%
[33]
  Activity: 96.4%
[34]
  Activity: 8.2%
[35]
  Ki: 0.47 nM
[36]
  inhibition: Dose-dependent effect
